From patent publication US20170081357A1, “[…] ACTIVE 17-NITROGEN SUBSTITUTED ESTRATREINTHIAZOLE DERIVATIVES AS INHIBITORS OF 17.BETA-HYDROXYSTEROID DEHYDROGENASE” (FORENDO PHARMA LTD, priority 2013, published 2017)

Experiments:
[1] = Metabolic stability assay, human liver microsome and homogenate incubations; type: in vitro ADME; conditions: human liver homogenate or microsomes, LC/PDA/TOF-MS
Procedure: The in vitro metabolic stability of the compounds of the invention was determined for exemplified compounds using human liver microsome and homogenate incubations. The incubation time points used with or without appropriate cofactors were 0 min and 60 min. Samples were collected at both time points and substrates were detected using LC/PDA/TOF-MS. In vitro metabolic stability (% remaining after 60 min in human liver homogenate or microsomes) of the compounds were calculated and the results are summarized in Table 3.

[2] = target: T1, recombinant human 17β-HSD2 (Homo sapiens, UniProt P37059); assay: Inhibition of recombinant human 17β-HSD2 (conversion of 3H-estradiol to estrone, HPLC); type: biochemical; conditions: inhibitor 1 μM; 50 nM estradiol, 1 mM NADH, 30 min at RT
T1 construct: made in house; host or cells: Sd9 (Sf9) insect cells, baculovirus (Bac to Bac Expression System); fractionated cell extract
T1 sequence (P37059 1-387): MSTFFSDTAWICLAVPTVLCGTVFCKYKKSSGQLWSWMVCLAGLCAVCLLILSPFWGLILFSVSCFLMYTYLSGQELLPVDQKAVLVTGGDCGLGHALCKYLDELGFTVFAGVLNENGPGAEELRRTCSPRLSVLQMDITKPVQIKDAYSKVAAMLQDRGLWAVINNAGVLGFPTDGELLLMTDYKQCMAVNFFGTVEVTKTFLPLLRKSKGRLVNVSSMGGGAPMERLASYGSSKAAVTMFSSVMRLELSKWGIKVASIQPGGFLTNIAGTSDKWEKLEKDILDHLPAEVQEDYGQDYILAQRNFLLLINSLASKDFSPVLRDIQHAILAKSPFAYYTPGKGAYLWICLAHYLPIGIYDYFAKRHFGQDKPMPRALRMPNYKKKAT
Procedure: 17β-HSD2 production and isolation: Similarly to 17β-HSD1 the Recombinant baculovirus was generated by the “Bac to Bac Expression System” (Invitrogen). Recombinant bacmid was transfected to Sd9 insect cells using “Cellfectin Reagent” (Invitrogen). 60 h later cells were harvested and supernatant were fractionated by the following protocol: • cells were dissolved into 40 ml of A-buffer (40 mM TRIS, pH8.0, 20% glycerol, 20 μM NAD, 0.4 mM PMSF, 150 mM NaCl, 0.5% dodecyl-β-maltoside+protease inhibitor cocktail) • cells were sonicated • lysate was incubated on ice for 15 min • lysate was centrifuged 5000 rpm 15 min, +4° C. • centrifugation of the supernatant 180 000 g 30 min, +4° C. • pellet was dissolved into 8 ml of A-buffer • not resuspended material was removed by centrifugation 5000 rpm 15 min, +4° C. • the clear supernatant was divided into 100 μl aliquots and were stored frozen until determination of enzymatic activity.
The amount of 17β-HSD2 was analysed by immunoblotting and total protein concentration of each extract batch was determined.
Assay—Inhibition of recombinant human 17β-HSD2: Recombinant protein (4 μg/ml) was incubated in 20 mM KH2PO4 pH 8.5 with 50 nM estradiol (including 800 000 cpm/ml of ^3H-estradiol) and 1 mM NADH for 30 min at RT, in the presence of the potential inhibitor at concentrations 1 μM or 0.1 μM. Inhibitor stock solutions were prepared in DMSO. Final concentration of DMSO was adjusted to 1% in all samples. The enzyme reaction was stopped by addition of 10% trichloroacetic acid (final concentration). Samples were centrifuged in a microtiter plate at 4000 rpm for 10 min. Supernatants were applied to reverse phase HPLC on a Waters Symmetry C18 column, equipped with a Waters Sentry Guard column. Isocratic HPLC runs were performed at RT at a flow rate of 1 ml/min in acetonitrile:water 48:52 as running solvent. Radioactivity was monitored in the eluate by a Packard Flow Scintillation Analyzer. Total radioactivity for estrone and estradiol were determined in each sample and percent conversion of estradiol to estrone was calculated according to the following formula:
(§1) Percent inhibition was calculated flowingly: % inhibition=100−% conversion

[3] = target: T2, recombinant human 17β-HSD1 (Homo sapiens, UniProt P14061); assay: Inhibition of recombinant human 17β-HSD1 (conversion of 3H-estrone to estradiol, HPLC); type: biochemical; conditions: inhibitor 1 μM; 30 nM estrone, 1 mM NADPH, 30 min at RT; read-out: 17β-HDS1 Inhibition % at 1 μM
T2 construct: made in house; host or cells: Sd9 (Sf9) insect cells, baculovirus (Bac to Bac Expression System); microsomal fraction
T2 sequence (P14061 1-328): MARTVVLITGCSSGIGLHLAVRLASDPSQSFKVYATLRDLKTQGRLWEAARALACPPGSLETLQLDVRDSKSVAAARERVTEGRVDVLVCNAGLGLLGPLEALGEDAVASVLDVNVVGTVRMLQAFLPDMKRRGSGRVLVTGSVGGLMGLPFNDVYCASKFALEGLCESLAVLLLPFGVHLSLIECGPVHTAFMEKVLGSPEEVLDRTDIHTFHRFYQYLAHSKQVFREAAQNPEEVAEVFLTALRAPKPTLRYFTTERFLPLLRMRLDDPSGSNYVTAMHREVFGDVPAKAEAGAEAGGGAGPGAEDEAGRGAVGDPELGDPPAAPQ
Procedure: 17β-HSD1 production and isolation: Recombinant baculovirus was generated by the “Bac to Bac Expression System” (Invitrogen). Recombinant bacmid was transfected to Sd9 insect cells using “Cellfectin Reagent” (Invitrogen). 60 h later cells were harvested; the microsomal fraction was isolated as described by Puranen, T. J., Poutanen, M. H., Peltoketo, H. E., Vihko, P. T. and Vihko, R. K. (1994) Site-directed mutagenesis of the putative active site of human 17 β-hydroxysteroid dehydrogenase type 1. Biochem. J. 304: 289-293. Aliquots were stored frozen until determination of enzymatic activity.
Assay—Inhibition of recombinant human 17β-HSD1: Recombinant protein (1 μg/ml) was incubated in 20 mM KH2PO4 pH 7.4 with 30 nM estrone (including 800 000 cpm/ml of ^3H-estrone) and 1 mM NADPH for 30 min at RT, in the presence of the potential inhibitor at concentrations 1 μM or 0.1 μM. Inhibitor stock solutions were prepared in DMSO. Final concentration of DMSO was adjusted to 1% in all samples. The enzyme reaction was stopped by addition of 10% trichloroacetic acid (final concentration). Samples were centrifuged in a microtiter plate at 4000 rpm for 10 min. Supernatants were applied to reverse phase HPLC on a Waters Symmetry C18 column, equipped with a Waters Sentry Guard column. Isocratic HPLC runs were performed at RT at a flow rate of 1 ml/min in acetonitrile:water 48:52 as running solvent. Radioactivity was monitored in the eluate by a Packard Flow Scintillation Analyzer. Total radioactivity for estrone and estradiol were determined in each sample and percent conversion of estrone to estradiol was calculated according to the following formula:
as §1

Compound | In vitro metabolic stability, % remaining after 60 min [1] [%] | inhibition at 1 µM [2] [%] | inhibition at 1 µM [3] [%]
Cc1cnc(NC(=O)CC[C@@H]2C/C(=N\O)[C@@]3(C)CCC4c5cc(C(C)(C)C)c(O)cc5CCC4C23)s1 (stereo partly drawn) [Compound 58, 3-{(13S,15R)-2-tert-Butyl-3-hydroxy-17-[(E)-hydroxyimino]-13-methyl-7,8,9,11,12,13,14,15,16,17-decahydro-6H-cyclopenta[a]phenanthren-15-yl}-N-(5-methylthiazol-2-yl)propanamide] | 100 | – | –
Cc1cnc(NC(=O)CC[C@@H]2C/C(=N\O)[C@@]3(C)CCC4c5cc([N+](=O)[O-])c(O)cc5CCC4C23)s1 (stereo partly drawn) [Compound 60, 3-{(13S,15R)-3-Hydroxy-2-nitro-17-[(E)-hydroxyimino]-13-methyl-7,8,9,11,12,13,14,15,16,17-decahydro-6H-cyclopenta[a]phenanthren-15-yl}-N-(5-methylthiazol-2-yl)propanamide] | 84 | – | –
Cc1cnc(NC(=O)CC[C@@H]2C/C(=N\O)[C@@]3(C)CCC4c5ccc(O)c(Br)c5CCC4C23)s1 (stereo partly drawn) [Compound 63, 3-{(13S,15R)-4-Bromo-3-hydroxy-17-[(E)-hydroxyimino]-13-methyl-7,8,9,11,12,13,14,15,16,17-decahydro-6H-cyclopenta[a]phenanthren-15-yl}-N-(5-methylthiazol-2-yl)propanamide] | 64 | – | –
Cc1cnc(NC(=O)CC[C@@H]2C/C(=N\OCC(=O)O)[C@@]3(C)CCC4c5ccc(O)cc5CCC4C23)s1 (stereo partly drawn) [Compound 109, [(13S,15R)-3-Hydroxy-13-methyl-15-[2-(5-methylthiazol-2-ylcarbamoyl)-ethyl]-6,7,8,9,11,12,13,14,15,16-decahydro-cyclopenta[a]phenanthren-(17E)-ylideneaminooxy]-acetic acid] | – | 0 | 56
Cc1cnc(NC(=O)CC[C@@H]2C/C(=N\OCC(=O)O)[C@@]3(C)CCC4c5cc(C(C)(C)C)c(O)cc5CCC4C23)s1 (stereo partly drawn) [Compound 110, [(13S,15R)-2-tert-Butyl-3-hydroxy-13-methyl-15-[2-(5-methylthiazol-2-ylcarbamoyl)-ethyl]-6,7,8,9,11,12,13,14,15,16-decahydro-cyclopenta[a]phenanthren-(17E)-ylideneaminooxy]-acetic acid] | – | 7 | 70
Cc1cnc(NC(=O)CC[C@@H]2C/C(=N\OCC(=O)O)[C@@]3(C)CCC4c5cc([N+](=O)[O-])c(O)cc5CCC4C23)s1 (stereo partly drawn) [Compound 111, [(13S,15R)-3-Hydroxy-13-methyl-2-nitro-15-[2-(5-methylthiazol-2-ylcarbamoyl)-ethyl]-6,7,8,9,11,12,13,14,15,16-decahydro-cyclopenta[a]phenanthren-(17E)-ylideneaminooxy]-acetic acid] | – | 0 | 55
Cc1cnc(NC(=O)CC[C@@H]2C/C(=N\NC(N)=O)[C@@]3(C)CCC4c5ccc(O)cc5CCC4C23)s1 (stereo partly drawn) [Compound 112, 3-{(13S,15R)-3-Hydroxy-17-[(E)-N-urea-imino]-13-methyl-7,8,9,11,12,13,14,15,16,17-decahydro-6H-cyclopenta[a]phenanthren-15-yl}-N-(5-methylthiazol-2-yl)propanamide] | – | 5 | 83
Cc1cnc(NC(=O)CC[C@@H]2C/C(=N\NC(N)=O)[C@@]3(C)CCC4c5cc(Br)c(O)c(Br)c5CCC4C23)s1 (stereo partly drawn) [Compound 113, 3-{(13S,15R)-2,4-Dibromo-3-hydroxy-17-[(E)-N-urea-imino]-13-methyl-7,8,9,11,12,13,14,15,16,17-decahydro-6H-cyclopenta[a]phenanthren-15-yl}-N-(5-methylthiazol-2-yl)propanamide] | – | 1 | 58
Cc1cnc(NC(=O)CC[C@@H]2C/C(=N\O)[C@@]3(C)CCC4c5ccc6ocnc6c5CCC4C23)s1 (stereo partly drawn) [Compound 114, 3-{(7aS,10R)-8-[(E)-Hydroxyimino]-7a-methyl-6,7,7a,8,9,10,10a,10b,11,12-decahydro-5bH-3-oxa-1-aza-dicyclopenta[a,i]phenathren-10-yl}-N-(5-methylthiazol-2-yl)propanamide] | – | 5 | 70
Cc1cnc(NC(=O)CC[C@@H]2c3conc3[C@@]3(C)CCC4c5cc(Br)c(O)c(Br)c5CCC4C23)s1 (some centres unmarked) [Compound 119] | – | 28 | 79
Cc1cnc(NC(=O)CC[C@@H]2C/C(=N\CC(C)C)[C@@]3(C)CCC4c5ccc(O)cc5CCC4C23)s1 (stereo partly drawn) [Compound 121, 3-{(13S,15R)-3-Hydroxy-17-[(E)-isobutylimino]-13-methyl-7,8,9,11,12,13,14,15,16,17-decahydro-6H-cyclopenta[a]phenanthren-15-yl}-N-(5-methylthiazol-2-yl)propionamide] | – | 7 | 94
COCC/N=C1\C[C@@H](CCC(=O)Nc2ncc(C)s2)C2C3CCc4cc(O)ccc4C3CC[C@]12C (stereo partly drawn) [Compound 122, 3-{(13S,15R)-3-Hydroxy-17-[(E)-2-methoxy-ethylimino]-13-methyl-7,8,9,11,12,13,14,15,16,17-decahydro-6H-cyclopenta[a]phenanthren-15-yl}-N-(5-methylthiazol-2-yl)propionamide] | – | 5 | 94
COCC/N=C1\C[C@@H](CCC(=O)Nc2ncc(C)s2)C2C3CCc4cc(O)c(C(C)(C)C)cc4C3CC[C@]12C (stereo partly drawn) [Compound 123, 3-{(13S,15R)-2-tert-Butyl-3-hydroxy-17-[(E)-2-methoxy-ethylimino]-13-methyl-7,8,9,11,12,13,14,15,16,17-decahydro-6H-cyclopenta[a]phenanthren-15-yl}-N-(5-methylthiazol-2-yl)propionamide] | – | 30 | 94
